# According to patent US5478807A, “Use of relaxin in the treatment of bradycardia” (Genentech, Inc., priority 1992, dated 1995):
# Where two headings read alike, the source gives them in different places.
# Tests used:
# rat isolated heart = test: Chronotropy and inotropy in Langendorff rat isolated heart
# Description: Male Sprague-Dawley rats weighing 300-350 g (Charles River, Portage, Ind., USA) were anesthetized with 60 mg/kg pentobarbital sodium (Fort Dodge Laboratories, Inc., Fort Dodge, Iowa, USA) intraperitoneally. Following thoracotomy, the hearts were removed and placed into 4° C. […] Any associated lung and thymic tissue were trimmed off and the ascending aorta cannulated. The heart was then perfused at 10 ml/min with Krebs-Henseleit solution at 37° C. The perfusion pressure was constantly monitored. A small incision was made in the left atrium and a water-filled balloon (Hugo Sachs Electronik, March-Hugstetten, Germany) connected to a pressure transducer (Gould Electronics, Valley View, Ohio, USA) was placed into the left ventricle for the measurement of left ventricular developed pressure (LVDP). From this pressure, recording heart rate was electronically derived on a Grass polygraph (Quincy, Mass., USA).
# In six experiments, after a 15-20 minutes stabilization period, the atria were removed. The heart rate was then allowed to stabilize at its new rate before the administration of relaxin. In three experiments, the atria were left intact.
# Relaxin was administered as 50 μl bolus injections into the perfusion fluid immediately prior to entering the heart. Cumulative dose-response curves were constructed using human recombinant H2 relaxin (Genentech, Inc. South San Francisco, Calif., USA). […] Serial dilutions of both drugs were made using 0.9% (w/v) saline solution.
# Statistical significance was determined by a two-tailed Student's unpaired t-test and P<0.005 was taken as significant.
# [1] = tested on: relaxin receptors in the rat heart; test: Effect of steroid hormones on relaxin receptors in the rat heart; assay type: in vivo; conditions: steroid treatment 10 μg s.c.; sacrificed 7 days later
# Description: For hormonal control experiments, 10-11-week-old female rats were ovariectomized for two weeks and then injected s.c. with 10 μg estradiol cyclopentyl propionate in a […] vehicle or with vehicle alone. Likewise, 10-11-week-old male rats were castrated for 2 weeks and were injected with either 10 μg estradiol cyclopentyl propionate, 10 μg testosterone, or vehicle alone. The rats were sacrificed 7 days later by asphyxiation with CO2. The relevant tissues were removed rapidly and frozen in powdered dry ice immediately.
# The frozen tissues were sectioned to 16 μm thickness using a Reichert-Jung Model 2800 Frigocut cryostat (Cambridge Instruments). Tissue sections were fixed onto gelatin/chromium potassium sulfate treated microscope slides by warming, and immediately refrozen and stored at -80° C. overnight or longer.
# For binding of ^32 P-relaxin to the tissue sections, frozen slides were prewashed with binding buffer (Hank's balanced salt solution supplemented with 20 mMHEPES, pH 7.2, 1 mg/ml BSA, 0.1 mM PMSF, and 1 μg/ml leupeptin) at 4° C. for 1.5-2 hours. The tissue sections were then covered with 600-700 μl of 100 pM ^32 P-relaxin with or without excess unlabeled relaxin and other competing agents as specificity control, and incubated at 4° C. for one hour. The slides were washed 3 times for 15-30 minutes each, with binding buffer. […]
# rat mesocaecum venules = conditions: local application; cited from earlier work
# [2] = cited from earlier work
# [3] = obliterative peripheral arterial disease; cited from earlier work
compound,measurement,setting,value
"CNCC(O)c1ccc(O)c(O)c1.O=C(O)C(O)C(O)C(=O)O (centres unmarked) [adrenaline, Adrenaline bitartrate, reference compound]",transient increases in coronary perfusion pressure,rat isolated heart,5-10 mmHg
same,left ventricular developed pressure (LVDP),"rat isolated heart; intact preparations, 4.5 pMol, basal 83±4 mmHg",195±10 mmHg
same,duration of chronotropic effect,rat isolated heart; relaxin: single bolus administration of 830 pMol,short-lasting
estradiol cyclopentyl propionate [Estrogen],effect on relaxin binding in the heart,[1],had no effect on relaxin binding in the heart
C[C@]12CC[C@H]3[C@@H](CCC4=CC(=O)CC[C@@]43C)[C@@H]1CC[C@@H]2O [testosterone],effect on relaxin binding in the heart,[1],did not cause any changes in relaxin binding in the heart
porcine relaxin,effect on venules and vasoconstriction,rat mesocaecum venules,dilate venules and antagonized the vasoconstrictive effects of norepinephrine and promethazine
same,blood pressure,"[2]; injection of up to 50 μg, anesthetized rats",did not affect blood pressure
same,arterial pressure,"[2]; intracerebroventricular injection, urethane anesthetized rat",increase arterial pressure
same,arterial pressure,"[2]; intravenous injection, urethane anesthetized rats",increases arterial pressure
same,heart rate,"[2]; intravenous or intracerebroventricular injection, urethane anesthetized rat",increase heart rate
same,healing of Raynaud's lesions,[3],beneficial in healing Raynaud's lesions
